From article PMC5128008, “Antimicrobial activity and stability of the D-amino acid substituted derivatives of antimicrobial peptide polybia-MPI” (AMB Express, 2016)
In brackets after ≈: the same amount, converted by molar mass. Where a SMILES comes first, the peptide text is derived from it. Where no end group is shown, it is not given here. [ ]: non-standard residue; d: D form.

What was measured:
[1] = test system: Candida albicans ATCC (ATCC 14053); assay: MIC, broth microdilution; type: cell-based; settings: Candida albicans (ATCC 14053), Sabouraud dextrose broth, 2 × 10^4 cfu/ml, peptide 1 to 256 µM, 18 h, 35 °C, visible turbidity, triplicate
Description: (§1) The minimal inhibitory concentration (MIC) of the peptides was measured in triplicate by the standard broth microdilution method (Peterson et al. [1980]; Wang et al. [2012]). In brief, bacteria/fungi were cultured overnight to mid-logarithmic-phase in Mueller–Hinton broth (MHB)/Sabouraud dextrose broth. The cultures were diluted to a final concentration of 2 × 10^4 cfu/ml in fresh Mueller–Hinton broth (MHB)/Sabouraud dextrose broth. Each well of 96-well propylene microtitre plates was filled with 100 µl cell suspension and 100 μl peptide solution of twofold diluted serially. And the final concentrations of peptide mixtures ranged from 1 to 256 µM. Controls were done without peptides. After 18 h of incubation at 37 °C (bacteria)/35 °C (fungi), the minimal inhibitory concentration (MIC) of the peptides was evaluated by visible turbidity in each well.

[2] = test system: Candida krusei (ATCC 6258); assay: MIC, broth microdilution; type: cell-based; settings: Sabouraud dextrose broth, 2 × 10^4 cfu/ml, peptide 1 to 256 µM, 18 h, 35 °C, visible turbidity, triplicate
Description: as §1

[3] = test system: E. coli (ML-35) (ATCC 43827); assay: MIC, broth microdilution; type: cell-based; settings: Mueller–Hinton broth, 2 × 10^4 cfu/ml, peptide 1 to 256 µM, 18 h, 37 °C, visible turbidity, triplicate
Description: as §1

sakazakii (ATCC 29544) [4] = assay: MIC, broth microdilution; type: cell-based; settings: Mueller–Hinton broth, 2 × 10^4 cfu/ml, peptide 1 to 256 µM, 18 h, 37 °C, visible turbidity, triplicate
Description: as §1

[5] = test system: Staphylococcus aureus (ATCC 29213); assay: MIC, broth microdilution; type: cell-based; settings: Mueller–Hinton broth, 2 × 10^4 cfu/ml, peptide 1 to 256 µM, 18 h, 37 °C, visible turbidity, triplicate
Description: as §1

[6] = test system: Pseudomonas aeruginosa (ATCC 27853); assay: MIC, broth microdilution; type: cell-based; settings: Mueller–Hinton broth, 2 × 10^4 cfu/ml, peptide 1 to 256 µM, 18 h, 37 °C, visible turbidity, triplicate
Description: as §1

[7] = test system: Candida parapsilosis (ATCC 22019); assay: MIC, broth microdilution; type: cell-based; settings: Sabouraud dextrose broth, 2 × 10^4 cfu/ml, peptide 1 to 256 µM, 18 h, 35 °C, visible turbidity, triplicate
Description: as §1

[8] = test system: E. coli (ML-35) (ATCC43827); assay: MBC, plating after MIC incubation; type: cell-based; settings: 50 µl aliquots from MIC wells onto agar plates, overnight 37 °C, lowest concentration reducing CFUs at least 99.9%
Description: as §1
(§2) The minimal bactericidal concentrations (MBCs) and minimum fungicidal concentration (MFCs) of the peptides was determined at the end of the incubation period by transferring 50 µl aliquots onto agar plates and incubated overnight at 37 °C/35 °C. The MBC/MFC was set as the lowest concentration of the number of CFUs that reduced at least 99.9%.

[9] = test system: Bacillus subtilis (ATCC23857); assay: MBC, plating after MIC incubation; type: cell-based; settings: 50 µl aliquots from MIC wells onto agar plates, overnight 37 °C, lowest concentration reducing CFUs at least 99.9%
Description: as §1, §2

[10] = test system: Staphylococcus aureus (ATCC29213); assay: MBC, plating after MIC incubation; type: cell-based; settings: 50 µl aliquots from MIC wells onto agar plates, overnight 37 °C, lowest concentration reducing CFUs at least 99.9%
Description: as §1, §2

[11] = test system: Pseudomonas aeruginosa (ATCC27853); assay: MBC, plating after MIC incubation; type: cell-based; settings: 50 µl aliquots from MIC wells onto agar plates, overnight 37 °C, lowest concentration reducing CFUs at least 99.9%
Description: as §1, §2

sakazakii (ATCC 29544) [12] = assay: MBC, plating after MIC incubation; type: cell-based; settings: 50 µl aliquots from MIC wells onto agar plates, overnight 37 °C, lowest concentration reducing CFUs at least 99.9%
Description: as §1, §2

E. coli (ATCC2592) = assay: MBC, plating after MIC incubation; type: cell-based; settings: 50 µl aliquots from MIC wells onto agar plates, overnight 37 °C, lowest concentration reducing CFUs at least 99.9%
Description: as §1, §2

[13] = test system: Staphylococcus epidermidis (ATCC 12228); assay: MBC, plating after MIC incubation; type: cell-based; settings: 50 µl aliquots from MIC wells onto agar plates, overnight 37 °C, lowest concentration reducing CFUs at least 99.9%
Description: as §1, §2

trypsin [14] = assay: Viability assay: antimicrobial activity against E. coli after trypsin treatment (Fig. 5); type: in vitro ADME; settings: 37 °C, then E. coli at MIC, OD 600 nm
Description: Viability assay different concentration of trypsin (from 0.0002 to 2 mg/ml) incubated with peptides for 1 or 6 h at 37 °C, and the enzymatic activity was terminated by additional heat inactivation at 60 °C for 20 min. Then the trypsin treated peptides were incubated with Escherichia coli (ATCC25922) at the concentration of MIC in 96-wells microtiter plate overnight at 37 °C (Choi et al. [2013]). The growth inhibitory effect was determined by measuring the absorbance at 600 nm. Then we took 100 μl samples of 6 h from each well with the concentration of 0.2 mg/ml and plated onto MH broth ager after dilution. After overnight incubation at 37 °C, photos of plates were photographed and the colonies on the plate were counted.

chymotrypsin [15] = assay: Viability assay: antimicrobial activity against E. coli after chymotrypsin treatment (Fig. 5); type: in vitro ADME; settings: 37 °C, then E. coli at MIC, OD 600 nm
trypsin [16] = assay: Radial diffusion assay after trypsin pre-incubation; type: in vitro ADME; settings: pre-incubation 4 h 37 °C, plates 18–24 h 37 °C, Fig. 6
Description: (§3) The enzymatic stability of Polybia-MPI and its analogues was evaluated by a modification of the sensitive radial diffusion assay. The bacteria were cultured until the optical density at 600 nm (OD600) of an aliquot reached 0.5. One milliliter of the bacteria suspension was added to 100 ml of previously autoclaved, warm Mueller–Hinton agar (MHA)/Sabouraud dextrose agar. The medium were poured into layer of a 5 mm deep. Wells were performed with a sterile plastic bore of a 3-mm-diameter gel punch. Following the addition of 20 µl pre-incubated mixture of peptides and different concentrations of trypsin or chymotrypsin for 4 h into wells. The plates were incubated at 37 °C for 18 to 24 h. An equal volume of 20 µl mixture had no trypsin or chymotrypsin was used as the control. The size of the clear zones surrounding each well as indicators of the enzymatic stability of Polybia-MPI and its analogues.
(§4) Fig. 6 The viability of bacteria/fungi after incubation with peptides in the presence/absence of enzyme. Each peptide was pre-incubated with different concentrations of chymotrypsin (a) or trypsin (b) at 37 °C for 4 h. Then the samples were heat inactivated and poured into wells of plates. The plates were incubated at 37 °C for 18–24 h. Controls were without trypsin or chymotrypsin

chymotrypsin [17] = assay: Radial diffusion assay after chymotrypsin pre-incubation; type: in vitro ADME; settings: pre-incubation 4 h 37 °C, plates 18–24 h 37 °C, Fig. 6
Description: as §3, §4

trypsin [18] = assay: Bactericidal activity after trypsin treatment, colony plates (Fig. 4); settings: peptide with trypsin 4 h 37 °C, enzyme heat inactivated at 60 °C, E. coli co-incubated 3 h, plated 24 h
Description: To test the stability of polybia-MPI and D-MPI, first 1 mg/l of the peptides were incubated with trypsin and chymotrypsin for 4 h for degradation. After the enzyme was heat inactivated at 60 °C for 15 min, E. coli was added and co-incubated for 3 h. Then, the treated bacteria were coated to plate and incubated at 37 °C for 24 h.
Peptides were incubated with the same volume of PBS (Left) or trypsin (Right) at 37 °C for 4 h. The enzyme was heat inactivated at 60 °C for 20 min, and E. coli suspension was added and co-incubated for 3 h. Then, the mixtures were plated onto MH broth ager and incubated for 18–24 h. Pictures of each plate were photographed

[19] = test system: all tested bacterial and fungal strains; assay: MIC, broth microdilution, summary over the panel; type: cell-based; settings: summary of Table 1, "almost in the range"
Description: as §1

| Compound | MIC [1] [µM] | MIC [2] [µM] | MIC [3] [µM] | MIC (sakazakii (ATCC 29544) [4]) [µM] | MIC [5] [µM] | MIC [6] [µM] | MIC [7] [µM] | MBC/MFC [8] [µM] | MBC/MFC [9] [µM] | MBC/MFC [10] [µM] | MBC/MFC [11] [µM] | MBC/MFC (sakazakii (ATCC 29544) [12]) [µM] | MBC/MFC (E. coli (ATCC2592)) [µM] | MBC/MFC [13] [µM] | E. coli colonies on plate after treatment with trypsin-incubated peptide (trypsin [18]) | also measured |
| --- | --- | --- | --- | --- | --- | --- | --- | --- | --- | --- | --- | --- | --- | --- | --- | --- |
| CC[C@H](C)[C@H](N)C(=O)N[C@@H](CC(=O)O)C(=O)N[C@@H](Cc1c[nH]c2ccccc12)C(=O)N[C@H](CCCCN)C(=O)N[C@H](CCCCN)C(=O)N[C@@H](CC(C)C)C(=O)N[C@@H](CC(C)C)C(=O)N[C@@H](CC(=O)O)C(=O)N[C@@H](C)C(=O)N[C@@H](C)C(=O)N[C@H](CCCCN)C(=O)N[C@@H](CCC(N)=O)C(=O)N[C@H](C(=O)N[C@@H](CC(C)C)C(N)=O)[C@@H](C)CC [D-lys-MPI] (H-IDW[dK][dK]LLDAA[dK]QIL-NH2) | 256 (≈ 423 µg/mL) | 128 (≈ 212 µg/mL) | >256 | >256 | >256 | >256 | >256 | >256 | >256 | >256 | >256 | >256 | >256 | >256 | – | – |
| CC[C@@H](C)[C@@H](N)C(=O)N[C@H](CC(=O)O)C(=O)N[C@H](Cc1c[nH]c2ccccc12)C(=O)N[C@H](CCCCN)C(=O)N[C@H](CCCCN)C(=O)N[C@H](CC(C)C)C(=O)N[C@H](CC(C)C)C(=O)N[C@H](CC(=O)O)C(=O)N[C@H](C)C(=O)N[C@H](C)C(=O)N[C@H](CCCCN)C(=O)N[C@H](CCC(N)=O)C(=O)N[C@@H](C(=O)N[C@H](CC(C)C)C(N)=O)[C@H](C)CC [D-MPI] (H-[dI][dD][dW][dK][dK][dL][dL][dD][dA][dA][dK][dQ][dI][dL]-NH2) | 16 (≈ 26.5 µg/mL) | 8 (≈ 13.2 µg/mL) | 32 (≈ 52.9 µg/mL) | 32 (≈ 52.9 µg/mL) | 16 (≈ 26.5 µg/mL) | 64 (≈ 106 µg/mL) | 32 (≈ 52.9 µg/mL) | 64 (≈ 106 µg/mL) | 8 (≈ 13.2 µg/mL) | 64 (≈ 106 µg/mL) | 128 (≈ 212 µg/mL) | 64 (≈ 106 µg/mL) | 16 (≈ 26.5 µg/mL) | 128 (≈ 212 µg/mL) | no colony | antimicrobial activity after incubation with trypsin (trypsin [14]; 2 mg/ml trypsin, 6 h): retained its antimicrobial activity; antimicrobial activity after incubation with chymotrypsin (chymotrypsin [15]; 2 mg/ml chymotrypsin, 6 h): retained its antimicrobial activity; inhibition zone diameters after incubation with trypsin (trypsin [16]; 2 mg/ml trypsin): almost the same as control; inhibition zone diameters after incubation with chymotrypsin (chymotrypsin [17]; 2 mg/ml chymotrypsin): almost the same as control; MIC values, range over all tested bacterial and fungal strains [19]: 8 to 64 µM |
| IDWKKLLDAAKQIL-NH2 [Polybia-MPI] | 16 | 8 | 32 | 64 | 32 | 128 | 64 | 256 | 8 | 128 | >256 | 64 | 32 | 32 | many colonies | trypsin concentration that totally inhibits the antimicrobial activity of the peptide (trypsin [14]; incubation 1 h): 0.002 mg/mL; chymotrypsin concentration that totally inhibits the antimicrobial activity of the peptide (chymotrypsin [15]; incubation 1 h): 0.002 mg/mL; inhibition zone diameters after incubation with trypsin (trypsin [16]; 0.02–2 mg/ml trypsin): decreased even disappeared; inhibition zone diameters after incubation with chymotrypsin (chymotrypsin [17]; 0.02–2 mg/ml chymotrypsin): decreased even disappeared |
